In patent publication US20060115502A1, “Cosmetic composition based on cirsimarin” (GATTEFOSSE SAS, priority 2003, published 2006):

Legend:
[1] = system: isolated adipocytes; assay: Lipolytic activity in vitro on isolated adipocytes (fatty acids released, NEFA C kit); type: cell-based, rats; conditions: cirsimarin tested at 0.5 mM and 0.1 mM; 1 hour at 37° C.; FIG. 2
Method: a. Positive references and products to be assessed • Noradrenalin (syn. Norepinephrine NE): this molecule, with a molar mass of […], is assessed at the final concentration of 1 μM in a Krebs-Ringer buffer at 4% albumin. • Caffeine: this molecule, with a molar mass of 194.2 g, is assessed at the final concentration of 0.5 mM in a Krebs-Ringer buffer at 4% albumin. • Theophylline: this molecule, with a molar mass of 180.2, is assessed at the final concentration of 0.5 mM in a Krebs-Ringer buffer at 4% albumin. • Cirsimarin: this molecule, with a molar mass of 476.44, is tested at 0.5 mM and 0.1 mM. This molecule is first solubilized in a mixture of solvents: NaOH 0.2 M/DMSO (95/5; v/v). […]
The lipolytic activity is measured by the quantity of fatty acids released; for this, a NEFA C (Non Esterified Fatty Acid/Colorimetric) colorimetric dosage kit sold by Wako® Chemical GmbH is used.
The quantity of fatty acids present in tubes 0 minus that present in tubes 00 corresponds to the basal lipolysis of the adipocytes in the buffer. The quantity of fatty acids present in tubes 0 solvent minus that present in tubes 00 corresponds to the basal lipolysis of the adipocytes in the buffer containing the cirsimarin solution solvent. The quantity of fatty acids released in reaction tubes minus that present in tubes 00 corresponds to the lipolysis induced by the molecules studied.

[2] = target: T1, A1 receptor (Homo sapiens, UniProt P30542); conditions: from literature; cited from earlier work
T1 sequence (P30542 1-326): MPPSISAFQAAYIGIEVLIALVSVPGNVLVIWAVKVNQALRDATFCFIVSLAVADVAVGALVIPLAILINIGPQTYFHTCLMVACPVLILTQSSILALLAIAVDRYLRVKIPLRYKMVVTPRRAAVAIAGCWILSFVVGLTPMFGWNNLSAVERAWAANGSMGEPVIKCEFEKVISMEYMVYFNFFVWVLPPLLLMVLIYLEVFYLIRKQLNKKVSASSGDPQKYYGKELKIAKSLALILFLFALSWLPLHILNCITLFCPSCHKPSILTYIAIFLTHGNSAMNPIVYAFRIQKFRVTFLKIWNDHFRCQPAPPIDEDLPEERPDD

[3] = system: lipolysis; conditions: documents by Nogowski and Jacobson; cited from earlier work

Compound	lipolytic activity (quantity of fatty acids released) [1]	A1 receptor antagonist properties [2]	lipolytic activity [3]
COc1cc2oc(-c3ccc(O[C@@H]4O[C@H](CO)[C@@H](O)[C@H](O)[C@H]4O)cc3)cc(=O)c2c(O)c1OC [cirsimarin, 5-hydroxy-6,7-dimethoxyflavone 4′-O-glucoside]	proven in vitro lipolytic activity	A1 receptor antagonist properties	
O=c1c(-c2ccc(O)cc2)coc2cc(O)cc(O)c12 [genistein]		identified as an A1 receptor antagonist	negligible lipolytic activity
